Laboratory results: US20230312652A1, “NOVEL PEPTIDES AND USES THEREOF” (Aarhus Universitet, priority 2020, published 2023)
Where a SMILES comes first, the peptide text is derived from it.

Experiments:
[1] = system: cortical neurons; test: Survival of wild-type cortical neurons, MTT assay; format: cell-based, mouse
Procedure: Cortical neurons were isolated from p0 wild-type mice and seeded in a density of 50.000 in a 96-well plate pre-coated with poly-L and laminin and incubated at 37° C. in a 5% C02 atmosphere. At 7 days in vitro (DIV7) the neurons were treated by changing half the media with neurobasal A with B27 containing the peptides (P2, P4 or P6) to give a finale concentration of 1 uM and further incubated. The cortical neurons were treated in a likewise manner on DIV9 and DIV11. At DIV12 half the media was removed and 3-(4,5-dimethylthiazole-2-yl)-2,5-diphenyltetrazolium bromide (MTT) was added to the media to give a finale concentration of 0.5 mg/mL. MTT is reduced by mitochondrial enzymes in active cells to an insoluble product called formazan, which can be detected by colorimetry. Thus, the colour generated reflects activity and viable cells in the culture. The neurons were incubated for 4 hours with MTT and thereafter lysed in a 50% EtOH and 50% DMSO solution. To assure proper mixing of formazan, the plate was left to shake for 30 minutes before being measured at 570 nm and 650 nm. Student's t-test was used for statistical analysis.
Further, a drug-dose response on survival for peptide P1 was assessed in a similar manner.

[2] = system: BDNF, TFEB and PGC1a; test: CREB-downstream target levels in wild-type cortical neurons; format: cell-based, mouse; settings: 1 uM, 4 hours or 6 hours
Procedure: Cortical neurons were isolated from p0 wild-type mice and seeded in a density of 200,000 per well (24-well tray). After 7 days in vitro the neurons were stimulated with 1 uM P1 in neurobasal A media and incubated at 37° C. and 5% CO2 for 4 hours or 6 hours. Hereafter, the neurons were lysed in RIPA lysis buffer containing cOmplete cocktail protease inhibitor.

[3] = system: AMPK (T172) and CREB (S133); test: P1 activation of AMPK and CREB with or without CaMKK2-inhibitor STO-609 in cortical neurons; format: cell-based, mouse
Procedure: Mouse cortical neurons were isolated from p0 wild-type mice and seeded in a density of 250,000 per well in a 12-well tray. After 7 days in vitro the neurons were either pre-treated with STO-609 (5 uM) for 1 hour or with DMSO (control). After 1 hour, the neurons were stimulated with P1 or a scrambled peptide (Scr), with or without STO-609, in neurobasal A media and incubated at 37° C. and 5% CO2 for 20 minutes. Hereafter, the neurons were lysed in lysis buffer containing DTT and cOmplete cocktail protease inhibitor. Phosphorylation of AMPK (T172) and CREB (S133) was validated by western blotting and normalized to beta-actin.

[4] = system: pCREB, TFEB, LAMP1, p62/SQSTM1, PGRN, PGC1a; test: Pathway engagement in striatum of wild-type mice after SC injection, western blotting; format: in vivo, mouse; settings: 13 mg/kg SC
Procedure: Wild-type mice were injected with 13 mg/kg of P1 (SEQ ID NO: 1) subcutaneously in 4.38 mM L-His, 140 mM NaCl, 0.2% Tween-20 and 1500 IU hyaluronidase (pH 6.15). The mice were sacrificed at timepoints between 2-8 hours after injection. Striatal tissue was isolated and the tissue was lysed using a TissueLyser in RIPA lysis buffer containing cOmplete and phosSTOP. Levels of pCREB, TFEB, downstream lysosomal gene products LAMP1, p62/SQSTM1, PGRN and mitochondrial master regulator PGC1a were validated by western blotting. All proteins were normalized to beta-actin levels.

[5] = Plasma stability, mouse plasma; format: in vitro ADME; settings: 2 μM, 37° C.
Procedure: (§1) Mouse or human plasma were incubated with 2 μM of P1 (SEQ ID NO: 1) or propantheline bromide (positive control for degradation) and left at 37° C. At each time point, stop solution was added to precipitate the solution and after mixing and centrifugation, supernatant was used for LCMS analysis.

[6] = Plasma stability, human plasma; format: in vitro ADME; settings: 2 μM, 37° C.
Procedure: as §1

[7] = Plasma binding, human plasma, ultracentrifugation; format: in vitro ADME
Procedure: For plasma binding, 2 μM P1 or Warfarin (positive control) were added to mouse or human plasma. After 30 minutes incubation at 37° C., samples where ultracentrifuged for 4 hours to generate protein-free samples for LCMS analysis. In parallel, plasma was incubated for 4.5 h to determine total levels after incubation. Plasma binding was calculated as % Bound=100*(1−F/T4.5), where F is concentration of free ligand and T4.5 is the concentration of total ligand after incubation.

[8] = Mouse brain homogenate stability; format: in vitro ADME; settings: 2 μM, read-out: T½ in brain homogenate
Procedure: Mouse brain homogenate was incubated with 2 μM of P1 or 7-Ethoxycoumarin (positive control of degradation). Enzymatic reactions were stopped at timepoints between 0-240 min and samples analysed by LCMS. For test with protease inhibitors, brain homogenate was pre-incubated for 30 minutes with protease inhibitors prior to incubation with P1. For brain homogenate binding, 2 μM of P1 or propranolol (positive control) were added to mouse brain homogenate and incubated at 37° C. for 30 minutes. To prepare the protein-free samples (F samples) to be used for unbound determination, an aliquot of the pre-incubated matrix containing test compound or control compound was transferred to ultracentrifuge tubes and subjected to ultracentrifugation at 37° C., 35000 rpm for 4 hrs. In parallel, brain homogenate was incubated for 4.5 hrs to determine total levels after incubation.

[9] = system: GRN; test: GRN levels in hippocampus of wild-type mice after 7 days daily SC treatment; format: in vivo, mouse; settings: 13 mg/kg SC daily for 7 days, sacrificed on day 8
Procedure: Wild-type mice were injected with a daily dose of 13 mg/kg of P1 (SEQ ID NO: 1) subcutaneously in 4.38 mM L-His, 140 mM NaCl, 0.2% Tween-20 and 1500 IU hyaluronidase (pH 6.15) for 7 days. The mice were sacrificed on day 8. The hippocampus was isolated and lysed using a TissueLyser in RIPA lysis buffer containing cOmplete and phosSTOP. Levels of GRN (ab HPA008763 from Sigma) was validated by western blotting normalized to beta-actin. Student's t-test was used for statistical analysis.

## CSCC[C@@H]1NC(=O)[C@H](C(C)C)NC(=O)[C@H](CC(=O)O)NC(=O)[C@H](CCC(=O)O)NC(=O)[C@H](CCC(=O)O)NC(=O)[C@H](Cc2c[nH]cn2)NC(=O)[C@H](CCC(=O)O)NC(=O)[C@H](C(C)C)NC(=O)[C@@H]2CCCN2C(=O)[C@H](CCC(=O)O)NC(=O)[C@H]([C@@H](C)O)NC1=O [Peptide P1, [MTEPVEHEEDV]] (cyclo(MTEPVEHEEDV))
[1]; BDNF as positive control
  survival in drug-dose response study: increases survival
[1]; drug-dose response, Example 5
  EC50: 2.7 µM
[2]
  BDNF level: upregulated
  PGC1a level: upregulated
  TFEB level: upregulated
[3]; 1 uM P1, without STO-609
  phosphorylation of AMPK (T172): significantly increased phosphorylation
  phosphorylation of CREB (S133): significantly increased phosphorylation
[3]; pre-treated with 5 uM STO-609 for 1 hour
  P1-induced activation of AMPK: loss of P1-induced activation of AMPK
[3]; pre-treated with 5 uM STO-609 for 1 hour, compared to P1-treated cells only
  CREB activation by P1: lowered but not totally abolished
[4]; after 2 hours
  pCREB in striatum: significantly activates CREB
[4]; at 4 hours
  pCREB in striatum: no significant effect
[4]; at 6 hours
  PGC1a in striatum: significantly increased
  PGRN in striatum: significantly increased
[4]; at 8 hours following injection
  p62/SQSTM1 levels in striatum (autophagic flux): significantly lowered
[4]; between 2-4 hours
  LAMP1 in striatum: significantly increased
  TFEB in striatum: significantly increased
[5]
  half-life: > 4.82 h
[6]
  half-life: > 4.82 h
[7]; 2 μM
  plasma binding: 20%
[7]; read-out: compound unbound in plasma
  fraction unbound at 30 min, 2 μM: > 0.75
[8]
  half-life: 4.08 h
[9]
  GRN levels in hippocampus: higher levels of GRN
